Experimental data: PMC7835349 (Communications Biology, 2021)
Values joined by “and” are separate entries in the source; they are usually repeats but may differ in a detail not shown here. Identical values can stand only once.

Columns and labels:
OCI-LY10 xenograft = OCI-LY10 xenograft efficacy and survival; type: in vivo, C.B-17 SCID mouse; parameters: OCI-LY10 xenograft efficacy, individual animals: unit not given here; conditions: for OCI-LY10 xenograft efficacy, individual animals: Acalabrutinib 12.5mpk BID
Procedure: (§1) Female C.B.−17 SCID mice were purchased from Charles River Laboratories. Mice were 5–8 weeks old at the time of tumour implantation. All xenograft studies were conducted at our Association for the Assessment and Accreditation of Laboratory Animal Care accredited facility in Waltham, MA in accordance with ethical regulations described in the guidelines established by the internal Institutional Animal Care and Use Committee. The dendrimer conjugates were formulated in citrate/phosphate buffer pH 5.0, diluted 1:10 with 5% glucose containing 1% w/v Kolliphor HS15, and AZD4320 was formulated in 30% HP-β-CD and dosed as a weekly intravenous (IV) administration at a volume of 5 ml/kg at the indicated doses. Five million RS4;11, five million SUDHL-4 or five million OCI-LY-10 cells were injected subcutaneously in the right flank of mice in a volume of 0.1 ml. Tumour volumes (measured by caliper), animal body weight, and tumor condition were recorded twice weekly for the duration of the study. The tumour volume was calculated (taking length to be the longest diameter across the tumour and width to be the corresponding perpendicular diameter) using the formula: length (mm) x width (mm)^2/0.52. For efficacy studies, mice were randomized based on tumour volumes using stratified sampling and enrolled into control and treatment groups. Tumour growth inhibition from the start of treatment was quantified by measuring the difference in tumour volume between control and treated groups. Survival analysis was evaluated using Mantel-Cox test. Tumours were also taken for bioanalysis.

SUDHL-4 xenograft = SUDHL-4 xenograft efficacy and survival; type: in vivo, C.B-17 SCID mouse; conditions: Rituxan (Rtx) 10 mg/kg
Procedure: as §1

Row | Compound | OCI-LY10 xenograft efficacy, individual animals (OCI-LY10 xenograft; day 18) | OCI-LY10 xenograft efficacy, individual animals (OCI-LY10 xenograft; day 21) | OCI-LY10 xenograft efficacy, individual animals (OCI-LY10 xenograft; day 25) | OCI-LY10 xenograft efficacy, individual animals (OCI-LY10 xenograft; day 28) | OCI-LY10 xenograft efficacy, individual animals (OCI-LY10 xenograft; day 32) | OCI-LY10 xenograft efficacy, individual animals (OCI-LY10 xenograft; day 35) | OCI-LY10 xenograft efficacy, individual animals (OCI-LY10 xenograft; day 39) | OCI-LY10 xenograft efficacy, individual animals (OCI-LY10 xenograft; day 42) | monotherapy activity (OCI-LY10 xenograft; OCI-LY10 DLBCL model) | SUDHL-4 xenograft efficacy, Geo Mean (SUDHL-4 xenograft; day 1) | SUDHL-4 xenograft efficacy, Geo Mean (SUDHL-4 xenograft; day 5) | SUDHL-4 xenograft efficacy, Geo Mean (SUDHL-4 xenograft; day 9) | SUDHL-4 xenograft efficacy, Geo Mean (SUDHL-4 xenograft; day 12) | SUDHL-4 xenograft efficacy, Geo Mean (SUDHL-4 xenograft; day 16) | SUDHL-4 xenograft efficacy, Geo Mean (SUDHL-4 xenograft; day 19) | SUDHL-4 xenograft efficacy, Geo Mean (SUDHL-4 xenograft; day 23) | SUDHL-4 xenograft efficacy, Geo Mean (SUDHL-4 xenograft; day 26) | SUDHL-4 xenograft efficacy, Geo Mean (SUDHL-4 xenograft; day 29) | SUDHL-4 xenograft efficacy, Geo Mean (SUDHL-4 xenograft; day 32)
1 | CC#CC(=O)N1CCC[C@H]1c1nc(-c2ccc(C(=O)Nc3ccccn3)cc2)c2c(N)nccn12 [acalabrutinib, reference compound] | 127 and 164 and 248 and 101 and 210 and 188 and 174 and 141 | 221 and 332 and 538 and 104 and 333 and 303 and 198 and 259 | 299 and 256 and 495 and 88 and 284 and 527 and 334 and 162 | 232 and 311 and 519 and 141 and 436 and 334 and 361 and 191 | 363 and 375 and 663 and 150 and 384 and 401 and 347 and 391 | 402 and 443 and 532 and 209 and 471 and 429 and 383 and 277 | 393 and 553 and 891 and 198 and 472 and 366 and 578 and 547 | 405 and 474 and 589 and 106 and 385 and 656 and 416 and 224 | neither agent showed any demonstrable monotherapy activity | – | – | – | – | – | – | – | – | – | –
2 | Rituxan (Rtx) | – | – | – | – | – | – | – | – | – | 207.17 | 194.343 | 229.272 | 236.829 | 277.244 | 341.784 | 461.782 | 534.569 | 692.979 | 702.104
